Each structure is given as a SMILES string.

The nature of series [1]: solubility of muconic acid in acidified aqueous fermentation medium. Format: physicochemical. The note with it: pH of 1-2, 20° C. The protocol:
Under optimal conditions, the muconic acid accumulation limit can approach up to about 50 grams of muconic acid per liter of growth medium. The microbiological oxidation step of the present invention process normally is conducted at ambient temperatures up to about 31° C. The muconic acid at a concentration between about 10-45 grams/liter in the cell-free ammonia-neutralized aqueous fermentation medium is precipitated with sulfuric acid or phosphoric acid. The precipitated muconic acid (solubility at pH of 1-2, about 0.07% at 20° C.) is filtered, washed and dried. In a further embodiment of the present invention, the muconic acid is admixed with a solvent medium such as acetic acid (e.g., to form a 40 weight percent muconic acid/acetic acid slurry solution), and then treated under hydrogenation conditions to yield adipic acid.

Series [2] can be described thus: solubility of muconic acid at pH 1.0 (Example III B, precipitation from regular "NO" medium). Format: physicochemical. The protocol: To 500 ml of regular "NO" medium are added 15 grams of cis, cis-muconic acid. The pH of the solution is about […]. A 14.2 ml quantity of concentrated NH4 OH solution (15N) is added to adjust the pH to 6.2.
To the neutralized solution is added a 17 ml quantity of concentrated H2 SO4 solution, which lowers the pH of the solution to 0.99. White solids precipitate from the solution, and the solids are filtered, washed and recovered as muconic acid (quantitative recovery; solubility of muconic acid at pH 1.0 is 0.03 wt %).

Take `O=C(O)/C=C\C=C/C(=O)O` [muconic acid, cis, cis-muconic acid]: the solubility entry is listed as “about 0.07%” in series [1] and 0.03 wt % in series [2].
